Test results published in US20130172308A1, “ANTIMICROBIAL AGENTS” (John Grant COLLINS, priority 2011, published 2013).

How the values were obtained:
S. aureus ATCC 25923 = assay: MIC determination, broth micro-dilution (CAMHB); format: cell-based, Staphylococcus aureus
Description: (§1) Four strains of bacteria were chosen for the susceptibility tests: S. aureus ATCC 25923; MRSA (a wild clinical strain from the JCU culture collection); E. coli ATCC 25922 and P. aeruginosa ATCC 27853. The bacteria were grown on Mueller Hinton agar (OXOID, cat. No. CM0337) and suspended in growth medium cation-adjusted Mueller Hinton broth (CAMHB, OXOID, cat. No. CM0405). The MIC of each complex was determined in duplicate by standard micro-dilution methodology (British Society for Antimicrobial Chemotherapy Working Party, J. Antimicrob. Chemother., 1991, 27(suppl. D), 22) using gentamicin as the positive control. The ruthenium complexes were dissolved in CAMHB to a stock solution of […] and two-fold diluted in the broth in 96-well plates in a final volume of […] in each well. The same volume […] of bacterial suspension was added in each well making a concentration range of 0.25 mg ml^−1 to 128 mg ml^−1 for each complex. The plates were incubated at 37° C. for 24 h. The results are summarised in Table 1 below, using the following abbreviations: • Rubpm=ΔΔ-[{Ru(phen)2}2(μ-2,2′-bipyrimidine)]Cl4 • Rudppm=ΔΔ-[{Ru(phen)2}2(μ-4,6-bis(2-pyridyl)pyrimidine)]Cl4 • Rubb7trinuclear=Δ*Δ*-[{Ru*(phen)2}(μ-bb7){Ru(phen)}(μ-bb7){Ru*(phen)2}]Cl6 (only the two terminal metal centres are chiral, the two central metal centres are racemic) • Rubb7tetranuclear=Δ*Δ*-[{Ru*(phen)2}(μ-bb7) {Ru(phen)}(μ-bb7){Ru(phen)}(μ-bb7)-{Ru*(phen)2}]Cl8 (only the two terminal metal centres are chiral, the two central metal centres are racemic)
(§2) Further MIC assays and Minimum Bactericidal Concentration (MBC) assays were conducted against Gram-positive and Gram-negative bacterial strains using symmetric and non-symmetric, inert and labile complexes.

E. coli = assay: Minimum Bactericidal Concentration (MBC) assay (CAMHB); format: cell-based, Escherichia coli; conditions: Table 4, all ΔΔ- enantiomers
Description: as §2

[1] = system: MRSA (a wild clinical strain from the JCU culture collection); assay: MIC determination, broth micro-dilution (CAMHB); format: cell-based, methicillin-resistant S. aureus
Description: as §1, §2

E. coli ATCC 25922 = assay: MIC determination, broth micro-dilution (CAMHB); format: cell-based, Escherichia coli
Description: as §1, §2

MRSA = assay: Minimum Bactericidal Concentration (MBC) assay (CAMHB); format: cell-based, methicillin-resistant S. aureus; conditions: Table 4, all ΔΔ- enantiomers
Description: as §2

S. aureus = assay: as above; format: cell-based, Staphylococcus aureus; conditions: Table 4, all ΔΔ- enantiomers
Description: as §2

P. aeruginosa = assay: as above; format: cell-based, Pseudomonas aeruginosa; conditions: Table 4, all ΔΔ- enantiomers
Description: as §2

P. aeruginosa ATCC 27853 = assay: MIC determination, broth micro-dilution (CAMHB); format: cell-based, Pseudomonas aeruginosa
Description: as §1, §2

[2] = format: physicochemical; conditions: pH 7.4
Description: The primary difference between the members of the Rubbn family of complexes is the number of methylene groups in the flexible linking chain. […] Lipophilicity is a significant factor affecting the biological activity of most therapeutic compounds, as it relates to the capacity of the drug to penetrate through the cell membrane. The standard octanol-water partition coefficient (logP) was determined for the Rubbn series (F. Lombardo, B. Faller, M. Shalaeva, I. Tetko and S. Tilton, Methods and Principles in Medicinal Chemistry, 2008, 37, 407) parent model mononuclear species ([Ru(phen)2(Me2bpy)]^2+) and the trinuclear and tetranuclear complexes.
The partition coefficients (logP) were measured using the shake flask technique: each ruthenium complex (at both 0.05 and 0.1 mM) was dissolved in the water phase (0.2 M Na2HPO4—NaH2PO4 buffer, pH=7.4) and an equivalent volume of n-octanol was added.
The two phases were mutually saturated by shaking overnight at ambient temperature and then were allowed to separate on standing. The concentration of the metal complex in each phase was determined spectrophotometrically at l=450 nm.

VRE = assay: Further MIC assays, whole spectrum bacteria (CAMHB); format: cell-based, vancomycin-resistant Enterococcus; conditions: Table 3; Broth: CAMHB
Description: (§3) Further MIC assays were conducted against five different bacteria with Rubbn (n=7, 10, 12, 16), two rigid dinuclear species (bridges bpm and dppm) and Gentamicin—Whole spectrum bacteria MIC test results (Broth: CAMHB).

S. typhimurium = assay: as above; format: cell-based; conditions: Table 3; Broth: CAMHB
Description: as §3

S. epidermidis = assay: as above; format: cell-based; conditions: Table 3; Broth: CAMHB
Description: as §3

A. baumanii = assay: as above; format: cell-based; set-up: unit not given here; conditions: Table 3; Broth: CAMHB
Description: as §3

E. faecalis = assay: as above; format: cell-based; set-up: unit not given beside the values; conditions: Table 3; Broth: CAMHB
Description: as §3

[3] = Table 4, CAMHB, all ΔΔ- enantiomers

Molecule: Cc1cc[n+]2c(c1)-c1cc(CCCCCCCc3cc[n+]4c(c3)-c3cc(C)cc[n+]3[Ru-4]435([n+]4cccc6ccc7ccc[n+]3c7c64)[n+]3cccc4ccc6ccc[n+]5c6c43)cc[n+]1[Ru-4]213([Cl])[n+]2ccccc2-c2cccc([n+]21)-c1cccc[n+]13 [Ru(μ-bb7)Ru—Cl, [Ru(phen)2(μ-bb7)Ru(terpy)Cl]]
- MIC S. aureus (S. aureus ATCC 25923; [3]): 8
- MBC E. coli (E. coli): 1 mg/L
- MIC MRSA [1, 3]: 8
- MIC E. coli (E. coli ATCC 25922; [3]): 1
- MBC MRSA (MRSA): 32 mg/L
- MBC S. aureus (S. aureus): 16 mg/L
- MBC P. aeruginosa (P. aeruginosa): 32 mg/L
- MIC P. aeruginosa (P. aeruginosa ATCC 27853; [3]): 16

Molecule: Cc1cc[n+]2c(c1)-c1cc(CCCCCCCc3cc[n+]4c(c3)-c3cc(C)cc[n+]3[Ru-4]435([n+]4cccc6ccc7ccc[n+]3c7c64)[n+]3cccc4ccc6ccc[n+]5c6c43)cc[n+]1[Ru-4]213([n+]2cccc4ccc5ccc[n+]1c5c42)[n+]1cccc2ccc4ccc[n+]3c4c21.F[P-](F)(F)(F)(F)F.F[P-](F)(F)(F)(F)F.F[P-](F)(F)(F)(F)F.F[P-](F)(F)(F)(F)F [Rubb7, [{Ru(phen)2}2(μ-bb7)](PF6)4]
- MIC S. aureus (S. aureus ATCC 25923; [3]): 16
- MBC E. coli (E. coli): 16 mg/L
- MIC MRSA [1, 3]: 16
- logP [2]: −3.4
- MIC E. coli (E. coli ATCC 25922; [3]): 16
- MBC MRSA (MRSA): 32 mg/L
- MBC S. aureus (S. aureus): 32 mg/L
- MBC P. aeruginosa (P. aeruginosa): 128 mg/L
- MIC P. aeruginosa (P. aeruginosa ATCC 27853; [3]): 64

Molecule: Cc1cc[n+]2c(c1)-c1cc(CCCCCCCCCCCCc3cc[n+]4c(c3)-c3cc(C)cc[n+]3[Ru-4]435([Cl])[n+]4ccccc4-c4cccc([n+]43)-c3cccc[n+]35)cc[n+]1[Ru-4]213([Cl])[n+]2ccccc2-c2cccc([n+]21)-c1cccc[n+]13.F[P-](F)(F)(F)(F)F.F[P-](F)(F)(F)(F)F [Rubb12-Cl, [{Ru(terpy)(Cl)}2(μ-bb12)](PF6)2]
- MIC S. aureus (S. aureus ATCC 25923; [3]): 1
- MBC E. coli (E. coli): 2 mg/L
- MIC MRSA [1, 3]: 1
- MIC E. coli (E. coli ATCC 25922; [3]): 2
- MBC MRSA (MRSA): 1 mg/L
- MBC S. aureus (S. aureus): 1 mg/L
- MBC P. aeruginosa (P. aeruginosa): 16 mg/L
- MIC P. aeruginosa (P. aeruginosa ATCC 27853; [3]): 8

Molecule: [Cl-].[Cl-].[Cl-].[Cl-].c1cc[n+]2c(c1)-c1cc3[n+](c[n+]1[Ru-4]214([n+]2cccc5ccc6ccc[n+]1c6c52)[n+]1cccc2ccc5ccc[n+]4c5c21)[Ru-4]12([n+]4ccccc4-3)([n+]3cccc4ccc5ccc[n+]1c5c43)[n+]1cccc3ccc4ccc[n+]2c4c31 [Rudppm, ΔΔ-[{Ru(phen)2}2(μ-4,6-bis(2-pyridyl)pyrimidine)]Cl4, reference compound]
- MIC S. aureus (S. aureus ATCC 25923; Table 1, 37° C., 24 h): >128 µg/mL
- MIC MRSA ([1]; Table 1, 37° C., 24 h): >128 µg/mL
- MIC VRE (VRE): >128
- MIC S. typhimurium (S. typhimurium): >128
- MIC S. epidermidis (S. epidermidis): >128
- MIC A. baumanii (A. baumanii): >128
- MIC E. coli (E. coli ATCC 25922; Table 1, 37° C., 24 h): >128 µg/mL
- MIC E. faecalis (E. faecalis): >128
- MIC P. aeruginosa (P. aeruginosa ATCC 27853; Table 1, 37° C., 24 h): >128 µg/mL

Molecule: [Ru(phen)2(μ-bb12)Ru(terpy)Cl](PF6)3 [Ru(μ-bb12)Ru—Cl]
- MIC S. aureus (S. aureus ATCC 25923; [3]): 1
- MBC E. coli (E. coli): 1 mg/L
- MIC MRSA [1, 3]: 1
- MIC E. coli (E. coli ATCC 25922; [3]): 1
- MBC MRSA (MRSA): 2 mg/L
- MBC S. aureus (S. aureus): 1 mg/L
- MBC P. aeruginosa (P. aeruginosa): 32 mg/L
- MIC P. aeruginosa (P. aeruginosa ATCC 27853; [3]): 16

Molecule: [Ru(phen)2(μ-bb16)Ru(terpy)Cl](PF6)3 [Ru(μ-bb16)Ru—Cl]
- MIC S. aureus (S. aureus ATCC 25923; [3]): 2
- MBC E. coli (E. coli): 4 mg/L
- MIC MRSA [1, 3]: 2
- MIC E. coli (E. coli ATCC 25922; [3]): 4
- MBC MRSA (MRSA): 2 mg/L
- MBC S. aureus (S. aureus): 2 mg/L
- MBC P. aeruginosa (P. aeruginosa): 64 mg/L
- MIC P. aeruginosa (P. aeruginosa ATCC 27853; [3]): 64

Molecule: [{Ru(terpy)(Cl)}2(μ-bb14)](PF6)2 [Rubb14-Cl]
- MIC S. aureus (S. aureus ATCC 25923; [3]): 1
- MBC E. coli (E. coli): 2 mg/L
- MIC MRSA [1, 3]: 1
- MIC E. coli (E. coli ATCC 25922; [3]): 2
- MBC MRSA (MRSA): 2 mg/L
- MBC S. aureus (S. aureus): 1 mg/L
- MBC P. aeruginosa (P. aeruginosa): 64 mg/L
- MIC P. aeruginosa (P. aeruginosa ATCC 27853; [3]): 32

Molecule: [{Ru(terpy)Cl}2(μ-bb7)] [Rubb7-Cl]
- MIC S. aureus (S. aureus ATCC 25923; [3]): 8
- MBC E. coli (E. coli): 8 mg/L
- MIC MRSA [1, 3]: 8
- MIC E. coli (E. coli ATCC 25922; [3]): 8
- MBC MRSA (MRSA): 16 mg/L
- MBC S. aureus (S. aureus): 8 mg/L
- MBC P. aeruginosa (P. aeruginosa): 64 mg/L
- MIC P. aeruginosa (P. aeruginosa ATCC 27853; [3]): 32

Molecule: gentamicin [reference compound]
- MIC S. aureus (S. aureus ATCC 25923; Table 1, 37° C., 24 h): ≦0.0625 μg.ml^−1
- MIC MRSA ([1]; Table 1, 37° C., 24 h): 16 µg/mL
- MIC VRE (VRE): 16
- MIC S. typhimurium (S. typhimurium): 2
- MIC S. epidermidis (S. epidermidis): <0.125
- MIC A. baumanii (A. baumanii): 16
- MIC E. coli (E. coli ATCC 25922; Table 1, 37° C., 24 h): 0.5 µg/mL
- MIC E. faecalis (E. faecalis): 32
- MIC P. aeruginosa (P. aeruginosa ATCC 27853; Table 1, 37° C., 24 h): 0.125 µg/mL

Molecule: Δ-[Ru(phen)2(Me2bipy)](PF6)2 [[Ru(phen)2(Me2bpy)]^2+, reference compound]
- MIC S. aureus (S. aureus ATCC 25923; Table 1, 37° C., 24 h): 128 µg/mL
- MIC MRSA ([1]; Table 1, 37° C., 24 h): >128 µg/mL
- logP [2]: −2.9
- MIC E. coli (E. coli ATCC 25922; Table 1, 37° C., 24 h): >128 µg/mL
- MIC P. aeruginosa (P. aeruginosa ATCC 27853; Table 1, 37° C., 24 h): >128 µg/mL

Molecule: Δ-[Ru(phen)2(bb16)]Cl2 [Rubb16mono]
- MIC S. aureus (S. aureus ATCC 25923; Table 1, 37° C., 24 h): 16 µg/mL
- MIC MRSA ([1]; Table 1, 37° C., 24 h): 16 µg/mL
- logP [2]: +2.1
- MIC E. coli (E. coli ATCC 25922; Table 1, 37° C., 24 h): 64 µg/mL
- MIC P. aeruginosa (P. aeruginosa ATCC 27853; Table 1, 37° C., 24 h): 64 µg/mL

Molecule: ΔΔ-[{Ru(phen)2}2(μ-2,2′-bipyrimidine)]Cl4 [Rubpm, reference compound]
- MIC S. aureus (S. aureus ATCC 25923; Table 1, 37° C., 24 h): >128 µg/mL
- MIC MRSA ([1]; Table 1, 37° C., 24 h): >128 µg/mL
- MIC VRE (VRE): >128
- MIC S. typhimurium (S. typhimurium): >128
- MIC S. epidermidis (S. epidermidis): >128
- MIC A. baumanii (A. baumanii): >128
- MIC E. coli (E. coli ATCC 25922; Table 1, 37° C., 24 h): >128 µg/mL
- MIC E. faecalis (E. faecalis): >128
- MIC P. aeruginosa (P. aeruginosa ATCC 27853; Table 1, 37° C., 24 h): >128 µg/mL
